Test results from patent US20190293584A1, “Detection of Living Cells” (priority 2018, published 2019).
Structures can show the parent of a compound that is named as a salt.

How the values were obtained:
mycobacteria = conditions: known from literature; cited from earlier work
M. smegmatis [1] = type: cell-based, Mycobacterium smegmatis
[2] = system: most other non-mycobacterial species; conditions: known from literature; cited from earlier work
M. bovis BCG [3] = type: cell-based, Mycobacterium bovis BCG
[4] = system: cocktail of S. aureus and P. aeruginosa; assay: m-EIS bulk capacitance vs time, incompletely decontaminated artificial sputum with non-mycobacterial cultures; type: cell-based, Staphylococcus aureus and Pseudomonas aeruginosa; conditions: incomplete decontamination: NaOH-NALC approximately 1 minute, 0.25 N NaOH
Text: All m-EIS readings were done post digestion and decontamination of the samples using the NALC-NaOH technique. In the first case, the sample has no bacteria and no changes in charge storage (bulk capacitance) should occur at any point in time. It is expected to see a flat line as there should be no change in the bulk capacitance over time. In case three, where the sample contains gram-positive and gram-negative bacteria, but no mycobacteria, all organisms should be killed during decontamination (pre-treatment) itself, and the addition of the antibiotics is not expected to cause any changes to the measured value of bulk capacitance. However, if there are mycobacteria in the sample (as in case […]), the mycobacteria should survive the decontamination process and continue to grow in the presence of Carbenicillin (case 2B). However, they will die in the presence of amikacin (case 2A). […]
The experimental protocol requires periodic (e.g., every hour) performance of an electrical “scan” of sample aliquots in a microfluidic cassette, wherein electrical impedance was measure at multiple (200) frequencies ranging from 1 kHz to 100 MHz. […] At each frequency (ω), both the in-phase and out-of-phase components of the electrical impedance, Z, (resistance (R) and reactance (X)) were measured. […]

M. tuberculosis = conditions: known from literature; cited from earlier work
M. bovis BCG [5] = conditions: known from literature; cited from earlier work
M. smegmatis [6] = conditions: known from literature; cited from earlier work

Row | SMILES | activity against mycobacteria (mycobacteria) | change of bulk capacitance (impedance values) over time (M. smegmatis [1]; Case 2: M. smegmatis, P aeruginosa and S. aureus, after decontamination) | activity against non-mycobacterial species [2] | rate of increase in bulk capacitance (M. bovis BCG [3]; Case 2, M. bovis BCG, 3 hours observation) | change of bulk capacitance over time (M. bovis BCG [3]; Case 2, M. bovis BCG, duration of observation 3 hours) | change of bulk capacitance over time [4] | time-to-detection (TTD): earliest time at which bulk capacitance is significantly lower than baseline (M. smegmatis [1]; M. smegmatis in artificial sputum after NaOH-NALC decontamination, initial loads (1 to 5)×10^5 CFU/ml, amikacin 32 μg/ml, carbenicillin 25 μg/ml) [h] | bactericidal effect (M. tuberculosis) | bactericidal effect (M. bovis BCG [5]) | time-to-detection (TTD) (M. bovis BCG [3]; M. bovis BCG in artificial sputum, exposed to amikacin) [h] | bactericidal effect (M. smegmatis [6])
1 | CC1(C)S[C@@H]2[C@H](NC(=O)C(C(=O)O)c3ccccc3)C(=O)N2[C@H]1C(=O)O (some centres unmarked) [Carbenicillin, Carbenicillin disodium salt] | ineffective | not found to show any decrease over time | bactericidal | negligible | no growth was seen | decreases in bulk capacitance were observed over time |  |  |  |  | 
2 | NCC[C@H](O)C(=O)N[C@@H]1C[C@H](N)[C@@H](O[C@H]2O[C@H](CN)[C@@H](O)[C@H](O)[C@H]2O)[C@H](O)[C@H]1O[C@H]1O[C@H](CO)[C@@H](O)[C@H](N)[C@H]1O [Amikacin] |  |  |  |  |  |  | < 3 | bactericidal effects | bactericidal effects | < 3 | bactericidal effects
